Broadly, the IC50 is the midpoint of a concentration-inhibition curve. High values mean lower potency, low ones higher potency.

Where a name gives a salt, the structure may show the parent alone.

The test concerns HCV genotype 1b strain Con1 replicon (ET replicon line, Huh7 cells). As to the kind of experiment: HCV ET replicon luciferase assay. It counts as cell-based. Particulars: Hepatitis C virus, Huh-7; Huh7 cells stably transfected with HCV genotype 1b Con1 replicon; firefly luciferase readout; 72 hours incubation. Here is the method:
Compounds of the current invention are believed useful in the treatment and/or prophylaxis of conditions and diseases associated with HcV infection. Activity mediated through HCV was determined using an ET replicon line.
The Materials used include a Medium comprised of DMEM (IX liquid, high glucose); Invitrogen cat #11965-092; 100× Penicillin/Streptomycin solution (10,000 Units/mL); Invitrogen cat #15140-122; 100× Non-essential amino acid solution (10 mM); Invitrogen cat #11140-050; Fetal bovine serum; JRH Biosciences cat #12107-500M; Geneticin (50 mg/mL); Invitrogen cat #10131-035
The Luciferase assay reagents include Steady-Glo Luciferase assay system, cat # E2550 (Promega)
The ET replicon line (see Lohmann et al. (1999), Replication of subgenomic hepatitis C virus RNAs in a hepatoma cell line. Science 285: 110-113; Krieger et al. (2001), Enhancement of hepatitis C virus RNA replication by cell culture-adaptive mutations. J. Virol. 75: 4614-4624; and Vrolijk et al. (2003), A replicon-based bioassay for the measurement of interferons in patients with chronic hepatitis C. J. Virol. Meth. 110: 201-209, each herein incorporated by reference with regard to the ET replicon line), includes Huh7 cells stably transfected with HCV genotype 1b strain Con1 replicon. This replicon expresses the firefly luciferase, has the coding region for ubiquitin inserted upstream of the neomycin gene, and carries three cell culture-adaptive mutations that enhance RNA replication cooperatively (E1202G, T1280I, and S2197P). The ET cell line was obtained under licence from: ReBLikon GmbH, Nach dem alten Schloss 22, 55239 Gau-Odernheim, Germany. […]
Cells are grown to approximately 80% confluency and trypsinised as described above. Cells are counted in a Levy Hemocytometer and diluted to 20,000 cells/ml in DMEM containing 10% FBS, 1× penicillin/streptomycin, 1×NEAAs. […]
245 μL cell suspension is added to the first 11 columns of the daughter plates prepared as above using a Multidrop dispenser (Titertek). […] The twelfth column of each plate is used to generate background readings for the assay. […]
The compound `C[C@@H](N[C@@H]1CCCc2c1[nH]c1ccc(Br)cc21)c1ccccc1` [Example 31, (1R)-6-bromo-N-[(1R)-1-phenylethyl]-2,3,4,9-tetrahydro-1H-carbazol-1-amine Hydrochloride Salt] showed an IC50 of 13 nM. This counts as double-digit nanomolar.

Turning to `C[C@H](N[C@@H]1CCCc2c1[nH]c1ccc(Br)cc21)c1ccccc1` [Example 36, (1R)-6-Bromo-N-[(1S)-1-phenylethyl]-2,3,4,9-tetrahydro-1H-carbazol-1-amine Hydrochloride Salt], inhibition was half-maximal at 8 nM (IC50).

With `Brc1ccc2[nH]c3c(c2c1)CCC[C@H]3NC1Cc2ccccc2C1` [Example 27, (1R)-6-Bromo-N-(2,3-dihydro-1H-inden-2-yl)-2,3,4,9-tetrahydro-1H-carbazol-1-amine hydrochloride salt], the midpoint of inhibition, the IC50, lay at 54 nM.

(Values after patent US20090170923A1, “HCV INHIBITORS” (priority 2004, published 2009).)
